Experiments:
Activated ERK2 = Activated ERK2 (Homo sapiens (Human), UniProt P28482); test: Active ERK2 kinase assay (Mobility Shift Assay); type: biochemical
Procedure: (§1) Activated ERK1 and ERK2 activity was determined in a Mobility Shift Assay (MSA) format as follows: Compound and kinase solution were prepared with assay buffer (20 mM HEPES, 0.01% Triton X-100, 2 mM DTT, pH7.5) and mixed and incubated in for 30 mins at rt. ERK1 & ERK2 were then activated by the addition of Fl-Substrate, ATP and metal solution and incubated for 1 h at rt. After 1 h, the reaction was terminated by the addition of […] of Termination Buffer (QuickScout Screening Assist MSA; Carna Biosciences) to the well. The reaction mixture was applied to LabChip™ system (PerkinElmer), and the product and substrate peptide peaks were separated, analyzed and quantitated. The kinase reaction is evaluated by the product ratio calculated from peak heights of product (P) and substrate (S) peptides (P/(P+S)).

A375 (melanoma) cells = test: Proliferation assay (CellTiter-Glo), A375; type: cell-based; details: Homo sapiens, A-375, 72 h, 3 days
Procedure: A375 (melanoma), Colo-205 (colon cancer), Miapaca (pancreatic), HPAFII (pancreatic), sNF02.0 (neurofibromatosis type 1), sNF96.2 (neurofibromatosis type 1) and 8505 (Thyroid) cells were grown and maintained in RPMI-1640 medium containing 100 U/mL penicillin-streptomycin and 10% fetal bovine serum. Cells were in growth medium in 96-well opaque-walled clear bottom plates and incubated the in the CO2 incubator overnight before treatment. Cells were treated with compounds diluted in DMSO and a 10 point 3-fold serial dilutions were done. Plates were placed in 37° C., 5% CO2 for to incubate for 3 days. Before they were developed by adding 100 μL of CellTiter-Glo reagent (Promega) to the assay plate, plates were shaken briefly for 2 mins and allowed to incubate at rt for 10 mins. The bottom of the plates was pasted with white back seal and luminescence was recorded with Flexstation3 with setting of luminescence, integration time 500 ms.

Activated ERK1 = Activated ERK1 (Homo sapiens (Human), UniProt P27361); test: Active ERK1 kinase assay (Mobility Shift Assay); type: biochemical
Activated ERK1, sequence (P27361 whole entry): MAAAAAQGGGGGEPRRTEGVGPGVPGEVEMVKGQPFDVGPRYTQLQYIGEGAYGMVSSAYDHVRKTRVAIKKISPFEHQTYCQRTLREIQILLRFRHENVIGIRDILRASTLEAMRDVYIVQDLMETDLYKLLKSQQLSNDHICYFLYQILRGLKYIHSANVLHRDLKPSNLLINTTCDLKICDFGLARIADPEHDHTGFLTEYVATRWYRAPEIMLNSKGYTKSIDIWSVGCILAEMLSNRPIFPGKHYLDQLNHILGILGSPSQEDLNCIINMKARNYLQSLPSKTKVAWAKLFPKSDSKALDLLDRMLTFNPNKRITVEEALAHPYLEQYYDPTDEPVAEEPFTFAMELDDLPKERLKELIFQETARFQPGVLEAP
Procedure: as §1

Activated ERK2, sequence (P28482 whole entry): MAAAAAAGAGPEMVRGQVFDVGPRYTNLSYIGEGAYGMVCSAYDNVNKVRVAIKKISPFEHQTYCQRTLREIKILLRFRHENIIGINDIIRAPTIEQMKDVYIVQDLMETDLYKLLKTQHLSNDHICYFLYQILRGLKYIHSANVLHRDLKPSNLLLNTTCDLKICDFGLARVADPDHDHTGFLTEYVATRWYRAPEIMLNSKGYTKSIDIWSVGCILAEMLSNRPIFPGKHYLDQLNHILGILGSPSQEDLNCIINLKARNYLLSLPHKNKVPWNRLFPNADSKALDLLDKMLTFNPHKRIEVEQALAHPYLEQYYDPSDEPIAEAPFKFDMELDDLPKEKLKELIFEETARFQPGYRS

Cn1cc(-c2ccc(C3=CCN(C(=O)CN4CC[C@]5(CCN(c6ccc7[nH]nc(-c8ccnc(C(F)(F)F)c8)c7c6)C5=O)C4)CC3)cc2)nn1 [Example 41, (S)-7-(2-(4-(4-(1-methyl-1H-1,2,3-triazol-4-yl)phenyl)-3,6-dihydropyridin-1 (2H)-yl)-2-oxoethyl)-2-(3-(2-(trifluoromethyl)pyridin-4-yl)-1H-indazol-5-yl)-2,7-diazaspiro[4.4]nonan-1-one]
IC50 (Activated ERK2): ≤ 50 nM | IC50 (A375 (melanoma) cells): ≤ 500 nM

Cn1cnc(-c2ccc(C3=CCN(C(=O)CN4CC[C@]5(CCN(c6ccc7[nH]nc(-c8ccncc8F)c7c6)C5=O)C4)CC3)cc2)n1 [Example 31, (S)-2-(3-(3-Fluoropyridin-4-yl)-1H-indazol-5-yl)-7-(2-(4-(4-(1-methyl-1H-1,2,4-triazol-3-yl)phenyl)-3,6-dihydropyridin-1(2H)-yl)-2-oxoethyl)-2,7-diazaspiro[4.4]nonan-1-one]
IC50 (Activated ERK2): ≤ 50 nM | IC50 (A375 (melanoma) cells): ≤ 500 nM | IC50 (Activated ERK1): ≤ 50 nM

Cn1cnc(-c2ccc(C3=CCN(C(=O)CN4CC[C@]5(CCN(c6ccc7[nH]nc(-c8ccnc(C(F)F)c8)c7c6)C5=O)C4)CC3)cc2)n1 [Example 40, (S)-2-(3-(2-(Difluoromethyl)pyridin-4-yl)-1H-indazol-5-yl)-7-(2-(4-(4-(1-methyl-1H-1,2,4-triazol-3-yl)phenyl)-3,6-dihydropyridin-1(2H)-yl)-2-oxoethyl)-2,7-diazaspiro[4.4]nonan-1-one]
IC50 (Activated ERK2): ≤ 50 nM | IC50 (A375 (melanoma) cells): ≤ 500 nM

O=C(CN1CC[C@]2(CCN(c3ccc4[nH]nc(-c5ccnc(C(F)(F)F)c5)c4c3)C2=O)C1)N1CC=C(c2ccc(-c3ncc(F)cn3)cc2)CC1 [Example 28, (S)-7-(2-(4-(4-(5-Fluoropyrimidin-2-yl)phenyl)-3,6-dihydropyridin-1(2H)-yl)-2-oxoethyl)-2-(3-(2-(trifluoromethyl)pyridin-4-yl)-1H-indazol-5-yl)-2,7-diazaspiro[4.4]nonan-1-one]
IC50 (Activated ERK2): ≤ 50 nM | IC50 (A375 (melanoma) cells): ≤ 500 nM | IC50 (Activated ERK1): ≤ 50 nM

CC(C)Oc1ccc(-c2n[nH]c3ccc(N4CCC5(CN(CC(=O)N6CC=C(c7ccc(-c8ncn(C)n8)cc7)CC6)C5)C4=O)cc23)cn1 [Example 13, 6-(3-(6-Isopropoxypyridin-3-yl)-1H-indazol-5-yl)-2-(2-(4-(4-(1-methyl-1H-1,2,4-triazol-3-yl)phenyl)-3,6-dihydropyridin-1(2H)-yl)-2-oxoethyl)-2,6-diazaspiro[3.4]octan-5-one]
IC50 (Activated ERK2): 50 to 250 nM | IC50 (Activated ERK1): 50 to 250 nM

CC(C)Oc1ccc(-c2n[nH]c3ccc(N4CC[C@@]5(CCN(CC(=O)N6CC=C(c7ccc(-c8ncn(C)n8)cc7)CC6)C5)C4=O)cc23)cn1 [Example 11, (R)-2-(3-(6-Isopropoxypyridin-3-yl)-1H-indazol-5-yl)-7-(2-(4-(4-(1-methyl-1H-1,2,4-triazol-3-yl)phenyl)-3,6-dihydropyridin-1 (2H)-yl)-2-oxoethyl)-2,7-diazaspiro[4.4]nonan-1-one]
IC50 (Activated ERK2): ≥ 250 nM | IC50 (Activated ERK1): ≥ 250 nM

Cn1cnc(-c2ccc(C3=CCN(C(=O)CN4CC[C@]5(CCN(c6ccc7[nH]nc(-c8cnccc8C(F)(F)F)c7c6)C5=O)C4)CC3)cc2)n1 [Example 34, (S)-7-(2-(4-(4-(1-Methyl-1H-1,2,4-triazol-3-yl)phenyl)-3,6-dihydropyridin-1(2H)-yl)-2-oxoethyl)-2-(3-(4-(trifluoromethyl)pyridin-3-yl)-1H-indazol-5-yl)-2,7-diazaspiro[4.4]nonan-1-one]
IC50 (Activated ERK2): ≥ 250 nM | IC50 (A375 (melanoma) cells): ≥ 1000 nM

Cn1cnc(-c2ccc(C3=CCN(C(=O)CN4CC[C@]5(CCN(c6ccc7[nH]ncc7c6)C5=O)C4)CC3)cc2)n1 [Example 36, (S)-2-(1H-indazol-5-yl)-7-(2-(4-(4-(1-methyl-1H-1,2,4-triazol-3-yl)phenyl)-3,6-dihydropyridin-1(2H)-yl)-2-oxoethyl)-2,7-diazaspiro[4.4]nonan-1-one]
IC50 (Activated ERK2): 50 to 250 nM | IC50 (A375 (melanoma) cells): ≥ 1000 nM

Cc1nnc(-c2ccc(C3=CCN(C(=O)CN4CC[C@]5(CCN(c6ccc7[nH]nc(-c8ccnc(C(F)(F)F)c8)c7c6)C5=O)C4)CC3)cc2)o1 [Example 42, (S)-7-(2-(4-(4-(5-Methyl-1,3,4-oxadiazol-2-yl)phenyl)-3,6-dihydropyridin-1 (2H)-yl)-2-oxoethyl)-2-(3-(2-(trifluoromethyl)pyridin-4-yl)-1H-indazol-5-yl)-2,7-diazaspiro[4.4]nonan-1-one]
IC50 (Activated ERK2): ≤ 50 nM | IC50 (A375 (melanoma) cells): ≤ 500 nM

CC(C)Oc1ccc(-c2n[nH]c3ccc(N4CCC5(CCN(CC(=O)N6CCN(c7ccc(-c8ncn(C)n8)cc7)CC6)C5)C4)cc23)cn1 (stereo not shown) [Example 2, 2-(7-(3-(6-Isopropoxypyridin-3-yl)-1H-indazol-5-yl)-2,7-diazaspiro[4.4]nonan-2-yl)-1-(4-(4-(1-methyl-1H-1,2,4-triazol-3-yl)phenyl)piperazin-1-yl)ethan-1-one]
IC50 (Activated ERK2): ≥ 250 nM | IC50 (Activated ERK1): ≥ 250 nM

Cn1cnc(-c2ccc(C3=CCN(C(=O)CN4CC[C@]5(CCN(c6ccc7[nH]nc(-c8ccnc(C(C)(F)F)c8)c7c6)C5=O)C4)CC3)cc2)n1 [Example 39, (S)-2-(3-(2-(1,1-difluoroethyl)pyridin-4-yl)-1H-indazol-5-yl)-7-(2-(4-(4-(1-methyl-1H-1,2,4-triazol-3-yl)phenyl)-3,6-dihydropyridin-1(2H)-yl)-2-oxoethyl)-2,7-diazaspiro[4.4]nonan-1-one]
IC50 (Activated ERK2): ≤ 50 nM | IC50 (A375 (melanoma) cells): ≤ 500 nM

CC(C)Oc1ccc(-c2n[nH]c3ccc(N4CC[C@]5(CCN(CC(=O)N6CC=C(c7ccc(-c8cn(C)cn8)cc7)CC6)C5)C4=O)cc23)cn1 [Example 26, (S)-2-(3-(6-Isopropoxypyridin-3-yl)-1H-indazol-5-yl)-7-(2-(4-(4-(1-methyl-1H-imidazol-4-yl)phenyl)-3,6-dihydropyridin-1(2H)-yl)-2-oxoethyl)-2,7-diazaspiro[4.4]nonan-1-one]
IC50 (Activated ERK2): ≤ 50 nM | IC50 (A375 (melanoma) cells): ≤ 500 nM

CC(C)Oc1ccc(-c2n[nH]c3ccc(N4CC[C@]5(CCN(CC(=O)N6CCC(c7ccc(-c8ncn(C)n8)cc7)CC6)C5)C4=O)cc23)cn1 [Example 16, (S)-2-(3-(6-Isopropoxypyridin-3-yl)-1H-indazol-5-yl)-7-(2-(4-(4-(1-methyl-1H-1,2,4-triazol-3-yl)phenyl)piperidin-1-yl)-2-oxoethyl)-2,7-diazaspiro[4.4]nonan-1-one]
IC50 (Activated ERK2): ≤ 50 nM | IC50 (Activated ERK1): ≤ 50 nM

Cc1noc(-c2ccc(C3=CCN(C(=O)CN4CC[C@]5(CCN(c6ccc7[nH]nc(-c8ccnc(C(F)(F)F)c8)c7c6)C5=O)C4)CC3)cc2)n1 [Example 43, (S)-7-(2-(4-(4-(3-methyl-1,2,4-oxadiazol-5-yl)phenyl)-3,6-dihydropyridin-1(2H)-yl)-2-oxoethyl)-2-(3-(2-(trifluoromethyl)pyridin-4-yl)-1H-indazol-5-yl)-2,7-diazaspiro[4.4]nonan-1-one]
IC50 (Activated ERK2): ≤ 50 nM | IC50 (A375 (melanoma) cells): ≥ 1000 nM

Cc1cc(-c2n[nH]c3ccc(N4CCC5(CCN(CC(=O)N6CC=C(c7ccc(-c8ncn(C)n8)cc7)CC6)C5)C4=O)cc23)ccn1 (stereo not shown) [Example 6, 7-(2-(4-(4-(1-Methyl-1H-1,2,4-triazol-3-yl)phenyl)-3,6-dihydropyridin-1(2H)-yl)-2-oxoethyl)-2-(3-(2-methylpyridin-4-yl)-1H-indazol-5-yl)-2,7-diazaspiro[4.4]nonan-1-one]
IC50 (Activated ERK2): ≤ 50 nM | IC50 (Activated ERK1): ≤ 50 nM

Cn1cnc(-c2ccc(C3=CCN(C(=O)CN4CC[C@]5(CCN(c6ccc7[nH]nc(N8CCOCC8)c7c6)C5=O)C4)CC3)cc2)n1 [Example 33, (S)-7-(2-(4-(4-(1-Methyl-1H-1,2,4-triazol-3-yl)phenyl)-3,6-dihydropyridin-1 (2H)-yl)-2-oxoethyl)-2-(3-morpholino-1H-indazol-5-yl)-2,7-diazaspiro[4.4]nonan-1-one]
IC50 (Activated ERK2): ≤ 50 nM | IC50 (A375 (melanoma) cells): ≤ 500 nM

CC(C)Oc1ccc(-c2n[nH]c3ccc(N4CCC5(CCN(CC(=O)N6CC=C(c7ccc(-c8ncn(C)n8)cc7)CC6)C5)C4=O)cc23)cn1 (stereo not shown) [Example 1, 2-(3-(6-Isopropoxypyridin-3-yl)-1H-indazol-5-yl)-7-(2-(4-(4-(1-methyl-1H-1,2,4-triazol-3-yl)phenyl)-3,6-dihydropyridin-1(2H)-yl)-2-oxoethyl)-2,7-diazaspiro[4.4]nonan-1-one]
IC50 (Activated ERK2): ≤ 50 nM | IC50 (Activated ERK1): ≤ 50 nM

CC(C)Oc1ccc(-c2n[nH]c3ccc(N4CC[C@]5(CCN(CC(=O)N6CCN(c7ccc(-c8ncn(C)n8)cc7)CC6)C5)C4=O)cc23)cn1 [Example 32, (S)-2-(3-(6-Isopropoxypyridin-3-yl)-1H-indazol-5-yl)-7-(2-(4-(4-(1-methyl-1H-1,2,4-triazol-3-yl)phenyl)piperazin-1-yl)-2-oxoethyl)-2,7-diazaspiro[4.4]nonan-1-one]
IC50 (Activated ERK2): ≤ 50 nM | IC50 (A375 (melanoma) cells): ≤ 500 nM

CC(C)Oc1ccc(-c2n[nH]c3ccc(N4CCCC5(CCN(CC(=O)N6CC=C(c7ccc(-c8ncn(C)n8)cc7)CC6)C5)C4=O)cc23)cn1 (stereo not shown) [Example 5, 7-(3-(6-Isopropoxypyridin-3-yl)-1H-indazol-5-yl)-2-(2-(4-(4-(1-methyl-1H-1,2,4-triazol-3-yl)phenyl)-3,6-dihydropyridin-1 (2H)-yl)-2-oxoethyl)-2,7-diazaspiro[4.5]decan-6-one]
IC50 (Activated ERK2): 50 to 250 nM | IC50 (Activated ERK1): ≥ 250 nM
